Data set [1] can be described thus: Cytotoxicity against human macrophages assessed as cell growth inhibition. The format is cell-based, Macrophage.
Data set [2] deals with HeLa. Description: Antiproliferative activity against human HeLa cells after 24 hrs by MTT assay. On the technique in general: Tetrazolium dyes change colour on reduction, which living cells bring about.
The next data set concerns MCF7. In words: Antiproliferative activity against human MCF7 cells after 24 hrs by MTT assay. The note with it: MCF7, 24 h.
A further data set concerns HepG2. Description: Antiproliferative activity against human HepG2 cells after 24 hrs by MTT assay. As to conditions: HepG2, 24 h.
For data set [3], the system named is HeLa. Description: Induction of apoptosis in human HeLa cells assessed as early apoptotic cells at 10 uM after 24 hrs by Annexin V FITC/propidium iodide staining based flow cytometric analysis (reference value: 8.45 %). The format is functional. On the technique in general: A flow cytometer gives signals particle by particle.
Data set [4] relates to HeLa. Description: Induction of apoptosis in human HeLa cells assessed as late apoptotic cells at 50 uM after 24 hrs by Annexin V FITC/propidium iodide staining based flow cytometric analysis (reference value: 10.17 %). The format is functional.
In data set [5] the test system is HeLa. Description: Induction of apoptosis in human HeLa cells assessed as early apoptotic cells at 50 uM after 24 hrs by Annexin V FITC/propidium iodide staining based flow cytometric analysis (reference value: 8.45 %). The format is functional.
Data set [6] concerns HeLa. Description: Induction of apoptosis in human HeLa cells assessed as early apoptotic cells at 2 uM after 24 hrs by Annexin V FITC/propidium iodide staining based flow cytometric analysis (reference value: 8.45 %). The format is functional.
In data set [7] the test system is HeLa. In words: Induction of apoptosis in human HeLa cells assessed as early apoptotic cells after 24 hrs by Annexin V FITC/propidium iodide staining based flow cytometric analysis. The format is functional, cell-based.
For data set [8], the system named is HeLa. In words: Induction of apoptosis in human HeLa cells assessed as late apoptotic cells at 2 uM after 24 hrs by Annexin V FITC/propidium iodide staining based flow cytometric analysis (reference value: 10.17 %). The format is functional.
For data set [9], the system named is HeLa. In words: Induction of apoptosis in human HeLa cells assessed as late apoptotic cells after 24 hrs by Annexin V FITC/propidium iodide staining based flow cytometric analysis. The format is functional, cell-based.
Data set [10] relates to HeLa. In words: Induction of apoptosis in human HeLa cells assessed as late apoptotic cells at 10 uM after 24 hrs by Annexin V FITC/propidium iodide staining based flow cytometric analysis (reference value: 10.17 %). The format is functional.

Regarding `COc1cccc(-c2nnc(Cn3nnc4ccccc43)o2)c1`, the CC50 in data set [1] is over 100 µM. The IC50 amounted to 243 µM with HeLa [2], 370 µM in the data set on MCF7 and 476 µM with HepG2.
On the same counts, the results for `Brc1cccc(-c2nnc(Cn3nnc4ccccc43)o2)c1` are over 100 µM, 301 µM, 382 µM and 488 µM.
For `COc1ccccc1Cc1nnc(Cn2nnc3ccccc32)o1`, the Activity is 23.57% in the data set on HeLa [3]; 35.86% in the data set with HeLa [4]; 36.18% with HeLa [5]; 9.86% with HeLa [6]; “Dose-dependent effect” in the data set on HeLa [7]; 19.6% in the data set on HeLa [8]. Moreover, the values for the Activity result with HeLa [9] and in the data set on HeLa [10] were “Dose-dependent effect” and 20.79%, respectively. In addition, in data set [1], the CC50 is over 100 µM. The half-inhibitory concentration (IC50) is 11 µM in the data set on HeLa [2], 15 µM in the data set with MCF7 and 334 µM in the data set on HepG2.
On to `Brc1cccc(Cc2nnc(Cn3nnc4ccccc43)o2)c1`, for which the CC50 in data set [1] was over 100 µM. The IC50 came to 182 µM in the data set with HeLa [2], 269 µM in the data set on MCF7 and 398 µM with HepG2.
For the compound `O=[N+]([O-])c1ccc(Cc2nnc(Cn3nnc4ccccc43)o2)cc1`, the CC50 in data set [1] is over 100 µM. For the same compound, the values for the IC50 in the data set on HeLa [2], with MCF7 and in the data set on HepG2 were 157 µM, 253 µM and 367 µM, respectively.
On the same counts, the results for `Fc1cccc(Cc2nnc(Cn3nnc4ccccc43)o2)c1` are over 100 µM, 237 µM, 357 µM and 368 µM.
The like results for `Clc1cccc(-c2nnc(Cn3nnc4ccccc43)o2)c1` were, in that order, over 100 µM, 327 µM, 390 µM and 440 µM.
On the same counts, the results for `COc1ccc(Cc2nnc(Cn3nnc4ccccc43)o2)cc1` are over 100 µM, 150 µM, 251 µM and 357 µM.
`Fc1cccc(-c2nnc(Cn3nnc4ccccc43)o2)c1`: the cytotoxic concentration (CC50) in data set [1] is over 100 µM. The figures for the half-inhibitory concentration (IC50) in the data set with HeLa [2], in the data set with MCF7 and with HepG2 were 332 µM, 398 µM and 451 µM, respectively.
On the same counts, the results for `Brc1ccc(-c2nnc(Cn3nnc4ccccc43)o2)cc1` are over 100 µM, 305 µM, 387 µM and 438 µM.
The like results for `Brc1ccc(Cc2nnc(Cn3nnc4ccccc43)o2)cc1` were, in that order, over 100 µM, 198 µM, 277 µM and 357 µM.
Regarding `O=[N+]([O-])c1ccc(-c2nnc(Cn3nnc4ccccc43)o2)cc1`, in data set [1], the CC50 was over 100 µM. Further, the IC50 came to 299 µM in the data set on HeLa [2], 13 µM in the data set on MCF7 and 483 µM in the data set on HepG2.
In the case of `COc1cccc(Cc2nnc(Cn3nnc4ccccc43)o2)c1`, the half-maximal cytotoxic concentration (CC50) in data set [1] is over 100 µM. In addition, the IC50 was 123 µM with HeLa [2], 241 µM in the data set with MCF7 and 350 µM in the data set with HepG2.
On the same counts, the results for `Clc1cccc(Cc2nnc(Cn3nnc4ccccc43)o2)c1` are over 100 µM, 230 µM, 292 µM and 401 µM.
As to `COc1ccccc1-c1nnc(Cn2nnc3ccccc32)o1`, the CC50 in data set [1] is over 100 µM. For the same compound, the half-maximal inhibitory concentration (IC50) was 216 µM in the data set with HeLa [2], 331 µM with MCF7 and 452 µM in the data set with HepG2.
The like results for `c1ccc(Cc2nnc(Cn3nnc4ccccc43)o2)cc1` were, in that order, over 100 µM, 167 µM, 258 µM and 369 µM.
On the same counts, the results for `COc1ccc(-c2nnc(Cn3nnc4ccccc43)o2)cc1` are over 100 µM, 269 µM, 376 µM and 477 µM.

In general, CC50 refers to the concentration at which the toxic effect on the cells reaches its halfway point. As usually defined, the IC50 is the concentration needed to halve the response being measured.

Source of the values: ChEMBL document CHEMBL3779785, “1,3,4-Oxadiazole derivatives as potential antitumor agents: discovery, optimization and biological activity valuation” (Medchemcomm, 2016).
